Measurements taken from US20090082337A1, “Compositions Comprising Quinolone and Methods for Treating or Controlling Infections” (priority 2007, published 2009).
Converted amounts (≈) assume the structure as drawn.

Assays:
Format in all cases: cell-based
[1] = tested on: Veillonella parvula (GAI 5602); assay: In vitro anti-bacterial activity (MIC90), anaerobic bacteria; settings: anaerobic reference bacteria
[2] = tested on: Streptococcus pneniae (IID 554); assay: In vitro anti-bacterial activity (MIC90), Gram-positive bacteria; settings: IID554, Gram-positive reference strain
Method: (§1) In yet another aspect, said another quinolone has a MIC90 value for a Gram-negative bacterium that is lower than that of the fluoroquinolone having Formula I, II, III, IV, V, VI, VII, or VIII for the same bacterium, said fluoroquinolone being included in the composition. MIC90 is the minimum concentration of the active compound required to inhibit ninety percent of the growth of a specified pathogen, in μg/ml. Anti-bacterial activity of the compound having Formula […] was tested against several Gram-positive reference bacteria strains and compared to the anti-bacterial activity of three commercially available antibiotics (nadifloxacin, ofloxacin, and sparfloxacin).

[3] = tested on: Bacillis subtilis (ATCC 6633); assay: as above; settings: Gram-positive reference strain
Method: as §1

[4] = tested on: Staphylococcus aureus (ATCC 25933); assay: as above; settings: ATCC25933, Gram-positive reference strain
Method: as §1

[5] = tested on: Sarcina lutea (ATCC 9341); assay: as above; settings: Micrococcus luteus, ATCC9341, Gram-positive reference strain
Method: as §1

[6] = tested on: Streptococcus faecalis (ATCC 29212); assay: as above; settings: Enterococcus faecalis, ATCC29212, Gram-positive reference strain
Method: as §1

[7] = tested on: Streptococcus pyogenes (IID 698); assay: as above; settings: IID698, Gram-positive reference strain
Method: as §1

[8] = tested on: Staphylococcus aureus (FDA 209P); assay: as above; settings: FDA209P, Gram-positive reference strain
Method: as §1

[9] = tested on: Streptococcus pyogenes (Cook); assay: as above; settings: Gram-positive reference strain
Method: as §1

[10] = tested on: Staphylococcus aureus (Smith); assay: as above; settings: Gram-positive reference strain
Method: as §1

[11] = tested on: Staphylococcus epidermidis (ATCC 12228); assay: as above; settings: ATCC12228, Gram-positive reference strain
Method: as §1

[12] = tested on: Streptococcus pneumoniae (IID 553); assay: as above; settings: IID553, Gram-positive reference strain
Method: as §1

[13] = tested on: Streptococcus faecalis (IFO 12964); assay: as above; settings: Enterococcus faecalis, IFO12964, Gram-positive reference strain
Method: as §1

[14] = tested on: Propionibacterium acnes (ATCC 6919); assay: In vitro anti-bacterial activity (MIC90), anaerobic bacteria; settings: Cutibacterium acnes, ATCC6919, anaerobic reference bacteria
[15] = tested on: Bacteroides fragillis (GAI 0675); assay: as above; settings: anaerobic reference bacteria
[16] = tested on: Staphylococcus aureus (ATCC 33592); assay: In vitro anti-bacterial activity (MIC90), methicillin-resistant Staphylococcus aureus isolates; settings: ATCC33592; methicillin-resistant Staphylococcus aureus (ATCC 33592)
Method: (§2) In yet another aspect, said another quinolone has a MIC90 value for a Gram-negative bacterium that is lower than that of the fluoroquinolone having Formula I, II, III, IV, V, VI, VII, or VIII for the same bacterium, said fluoroquinolone being included in the composition. MIC90 is the minimum concentration of the active compound required to inhibit ninety percent of the growth of a specified pathogen, in μg/ml.
(§3) Anti-bacterial activity of the compound having Formula IV was tested against some methicillin-resistant Staphylococcus aureus bacteria strains and compared to the anti-bacterial activity of three commercially available antibiotics (nadifloxacin, ofloxacin, and sparfloxacin).

[17] = tested on: Staphylococcus aureus (No. 420); assay: as above; settings: methicillin-resistant Staphylococcus aureus (No. 420)
Method: as §2, §3

[18] = tested on: Staphylococcus aureus (ATCC 33593); assay: as above; settings: ATCC33593; methicillin-resistant Staphylococcus aureus (ATCC 33593)
Method: as §2, §3

[19] = tested on: Staphylococcus aureus (No. 421); assay: as above; settings: methicillin-resistant Staphylococcus aureus (No. 421)
Method: as §2, §3

[20] = tested on: Staphylococcus aureus (No. 419); assay: as above; settings: methicillin-resistant Staphylococcus aureus (No. 419)
Method: as §2, §3

[21] = tested on: Staphylococcus aureus (ATCC 33591); assay: as above; settings: ATCC33591; methicillin-resistant Staphylococcus aureus (ATCC 33591)
Method: as §2, §3

[22] = tested on: Staphylococcus aureus (No. 395); assay: as above; settings: methicillin-resistant Staphylococcus aureus (No. 395)
Method: as §2, §3

[23] = tested on: Staphylococcus aureus (No. 415); assay: as above; settings: methicillin-resistant Staphylococcus aureus (No. 415)
Method: as §2, §3

[24] = tested on: Enterobacter aerogenes (IFO 13534); assay: In vitro anti-bacterial activity (MIC90), Gram-negative bacteria; settings: Klebsiella aerogenes, IFO13534, Gram-negative reference strain
Method: as §2
(§4) Anti-bacterial activity of the compound having Formula IV was tested against several Gram-negative reference bacteria strains and compared to the anti-bacterial activity of three commercially available antibiotics (nadifloxacin, ofloxacin, and sparfloxacin). The results are shown in Table 2 as MIC90 values (minimum concentration of the active compound required to inhibit ninety percent of the growth of a specified pathogen, in μg/ml).

[25] = tested on: Serratia marcenscens (NHL); assay: as above; settings: Gram-negative reference strain
Method: as §2, §4

[26] = tested on: Pseudomonas aeruginosa (IFO 13736); assay: as above; settings: IFO13736, Gram-negative reference strain
Method: as §2, §4

[27] = tested on: Shigella flexneri (2b); assay: as above; settings: Gram-negative reference strain
Method: as §2, §4

[28] = tested on: Pseudomonas aeruginosa (ATCC 27853); assay: as above; settings: ATCC27853, Gram-negative reference strain
Method: as §2, §4

[29] = tested on: Proteus rettgeri; assay: as above; settings: Providencia rettgeri, Gram-negative reference strain
Method: as §2, §4

[30] = tested on: Bacteroides vulgatus (GAI 0673); assay: In vitro anti-bacterial activity (MIC90), anaerobic bacteria; settings: Phocaeicola vulgatus, anaerobic reference bacteria

CC1CCc2c(N3CCC(O)CC3)c(F)cc3c(=O)c(C(=O)O)cn1c23 (stereo not drawn) [Nadifloxacin, nadifloxacin]
MIC90 [1]: 0.78 mg/L (≈ 2.16 µM) | MIC90 [2]: 0.78 mg/L (≈ 2.16 µM) | MIC90 [3]: 0.006 mg/L (≈ 0.0166 µM) | MIC90 [4]: 0.05 mg/L (≈ 0.139 µM) | MIC90 [5]: 0.39 mg/L (≈ 1.08 µM) | MIC90 [6]: 0.78 mg/L (≈ 2.16 µM) | MIC90 [7]: 0.1 mg/L (≈ 0.277 µM) | MIC90 [8]: 0.024 mg/L (≈ 0.0666 µM) | MIC90 [9]: 0.78 mg/L (≈ 2.16 µM) | MIC90 [10]: 0.024 mg/L (≈ 0.0666 µM) | MIC90 [11]: 0.1 mg/L (≈ 0.277 µM) | MIC90 [12]: 0.78 mg/L (≈ 2.16 µM) | MIC90 [13]: 0.78 mg/L (≈ 2.16 µM) | MIC90 [14]: 0.2 mg/L (≈ 0.555 µM) | MIC90 [15]: 1.56 mg/L (≈ 4.33 µM) | MIC90 [16]: 0.05 mg/L (≈ 0.139 µM) | MIC90 [17]: 0.78 mg/L (≈ 2.16 µM) | MIC90 [18]: 0.024 mg/L (≈ 0.0666 µM) | MIC90 [19]: 0.78 mg/L (≈ 2.16 µM) | MIC90 [20]: 0.39 mg/L (≈ 1.08 µM) | MIC90 [21]: 0.006 mg/L (≈ 0.0166 µM) | MIC90 [22]: 0.024 mg/L (≈ 0.0666 µM) | MIC90 [23]: 0.1 mg/L (≈ 0.277 µM) | MIC90 [24]: 1.56 mg/L (≈ 4.33 µM) | MIC90 [25]: 1.56 mg/L (≈ 4.33 µM) | MIC90 [26]: 3.13 mg/L (≈ 8.69 µM) | MIC90 [27]: 0.006 mg/L (≈ 0.0166 µM) | MIC90 [28]: 6.25 mg/L (≈ 17.3 µM) | MIC90 [29]: 0.39 mg/L (≈ 1.08 µM) | MIC90 [30]: 0.78 mg/L (≈ 2.16 µM)

CC1COc2c(N3CCN(C)CC3)c(F)cc3c(=O)c(C(=O)O)cn1c23 (stereo not drawn) [Ofloxacin, ofloxacin]
MIC90 [1]: 0.39 mg/L (≈ 1.08 µM) | MIC90 [2]: 1.56 mg/L (≈ 4.32 µM) | MIC90 [3]: 0.05 mg/L (≈ 0.138 µM) | MIC90 [4]: 0.39 mg/L (≈ 1.08 µM) | MIC90 [5]: 3.13 mg/L (≈ 8.66 µM) | MIC90 [6]: 1.56 mg/L (≈ 4.32 µM) | MIC90 [7]: 0.39 mg/L (≈ 1.08 µM) | MIC90 [8]: 0.2 mg/L (≈ 0.553 µM) | MIC90 [9]: 0.78 mg/L (≈ 2.16 µM) | MIC90 [10]: 0.2 mg/L (≈ 0.553 µM) | MIC90 [11]: 0.78 mg/L (≈ 2.16 µM) | MIC90 [12]: 1.56 mg/L (≈ 4.32 µM) | MIC90 [13]: 1.56 mg/L (≈ 4.32 µM) | MIC90 [14]: 0.78 mg/L (≈ 2.16 µM) | MIC90 [15]: 1.56 mg/L (≈ 4.32 µM) | MIC90 [16]: 0.39 mg/L (≈ 1.08 µM) | MIC90 [17]: 1.56 mg/L (≈ 4.32 µM) | MIC90 [18]: 0.2 mg/L (≈ 0.553 µM) | MIC90 [19]: 1.56 mg/L (≈ 4.32 µM) | MIC90 [20]: 3.13 mg/L (≈ 8.66 µM) | MIC90 [21]: 0.05 mg/L (≈ 0.138 µM) | MIC90 [22]: 0.2 mg/L (≈ 0.553 µM) | MIC90 [23]: 0.78 mg/L (≈ 2.16 µM) | MIC90 [24]: 0.2 mg/L (≈ 0.553 µM) | MIC90 [25]: 0.1 mg/L (≈ 0.277 µM) | MIC90 [26]: 1.56 mg/L (≈ 4.32 µM) | MIC90 [27]: 0.006 mg/L (≈ 0.0166 µM) | MIC90 [28]: 3.13 mg/L (≈ 8.66 µM) | MIC90 [29]: 0.2 mg/L (≈ 0.553 µM) | MIC90 [30]: 3.13 mg/L (≈ 8.66 µM)

C[C@@H]1CN(c2c(F)c(N)c3c(=O)c(C(=O)O)cn(C4CC4)c3c2F)C[C@H](C)N1 [Sparfloxacin, sparfloxacin]
MIC90 [1]: 0.2 mg/L (≈ 0.51 µM) | MIC90 [2]: 0.39 mg/L (≈ 0.994 µM) | MIC90 [3]: 0.024 mg/L (≈ 0.0612 µM) | MIC90 [4]: 0.1 mg/L (≈ 0.255 µM) | MIC90 [5]: 1.56 mg/L (≈ 3.98 µM) | MIC90 [6]: 0.39 mg/L (≈ 0.994 µM) | MIC90 [7]: 0.2 mg/L (≈ 0.51 µM) | MIC90 [8]: 0.024 mg/L (≈ 0.0612 µM) | MIC90 [9]: 0.39 mg/L (≈ 0.994 µM) | MIC90 [10]: 0.05 mg/L (≈ 0.127 µM) | MIC90 [11]: 0.2 mg/L (≈ 0.51 µM) | MIC90 [12]: 0.39 mg/L (≈ 0.994 µM) | MIC90 [13]: 0.78 mg/L (≈ 1.99 µM) | MIC90 [14]: 0.39 mg/L (≈ 0.994 µM) | MIC90 [15]: 0.78 mg/L (≈ 1.99 µM) | MIC90 [16]: 0.1 mg/L (≈ 0.255 µM) | MIC90 [17]: 0.78 mg/L (≈ 1.99 µM) | MIC90 [18]: 0.024 mg/L (≈ 0.0612 µM) | MIC90 [19]: 0.39 mg/L (≈ 0.994 µM) | MIC90 [20]: 1.56 mg/L (≈ 3.98 µM) | MIC90 [21]: 0.024 mg/L (≈ 0.0612 µM) | MIC90 [22]: 0.05 mg/L (≈ 0.127 µM) | MIC90 [23]: 0.2 mg/L (≈ 0.51 µM) | MIC90 [24]: 0.1 mg/L (≈ 0.255 µM) | MIC90 [25]: 0.2 mg/L (≈ 0.51 µM) | MIC90 [26]: 0.78 mg/L (≈ 1.99 µM) | MIC90 [27]: 0.006 mg/L (≈ 0.0153 µM) | MIC90 [28]: 0.78 mg/L (≈ 1.99 µM) | MIC90 [29]: 0.2 mg/L (≈ 0.51 µM) | MIC90 [30]: 0.78 mg/L (≈ 1.99 µM)

N[C@@H]1CCCCN(c2c(F)cc3c(=O)c(C(=O)O)cn(C4CC4)c3c2Cl)C1 [Compound Having Formula IV]
MIC90 [1]: 0.1 mg/L | MIC90 [2]: 0.2 mg/L | MIC90 [3]: 0.012 mg/L | MIC90 [4]: 0.05 mg/L | MIC90 [5]: 0.1 mg/L | MIC90 [6]: 0.2 mg/L | MIC90 [7]: 0.1 mg/L | MIC90 [8]: 0.012 mg/L | MIC90 [9]: 0.1 mg/L | MIC90 [10]: 0.006 mg/L | MIC90 [11]: 0.05 mg/L | MIC90 [12]: 0.1 mg/L | MIC90 [13]: 0.1 mg/L | MIC90 [14]: 0.2 mg/L | MIC90 [15]: 0.1 mg/L | MIC90 [16]: 0.05 mg/L | MIC90 [17]: 0.1 mg/L | MIC90 [18]: 0.012 mg/L | MIC90 [19]: 0.2 mg/L | MIC90 [20]: 0.1 mg/L | MIC90 [21]: 0.012 mg/L | MIC90 [22]: 0.006 mg/L | MIC90 [23]: 0.05 mg/L | MIC90 [24]: 0.39 mg/L | MIC90 [25]: 0.2 mg/L | MIC90 [26]: 1.56 mg/L | MIC90 [27]: 0.006 mg/L | MIC90 [28]: 1.56 mg/L | MIC90 [29]: 0.39 mg/L | MIC90 [30]: 0.1 mg/L
